Measured values from patent US20230352136A1, “SYSTEMS AND METHODS TO EVALUATE DRUG-INDUCED GASTROINTESTINAL DYSRHYTHMIA” (The Chinese University of Hong Kong, priority 2022, published 2023).

Columns and labels:
[1] = system: stomach pacemaker potentials; assay: MEA recording of pacemaker potentials (slow waves), isolated stomach; type: cell-based, Suncus murinus
Procedure: (§1) Pacemaker potentials were recorded extracellularly on a 60-channel MEA system using full-thickness GI segments isolated from Suncus murinus. Basic slow-wave parameters, including frequency, amplitude, slope, period, and power partitions, were derived. Signal regularity was also evaluated using detrended fluctuation analysis and sample entropy analysis.
(§2) Electrical recordings were taken after the animals were euthanised by carbon dioxide asphyxiation. […] The mesentery was removed, and the lumen contents were flushed with Krebs' medium. Segments (−1 cm) of duodenum, ileum, and colon were then isolated, but the stomach was kept intact. All tissue segments and the entire stomach were incubated in Krebs' medium containing nifedipine (1 μM; Sigma Aldrich, St Louis, MO, USA) for 15 min to inhibit smooth muscle activity. Pacemaker potentials were recorded using an MEA platform (MEA1060 1200×; Multichannel Systems, Reutlingen, Germany) as previously described. Briefly, tissues were placed onto the electrode field of an MEA chip (60-channel, 8×8 configuration, 3D-tip-shaped electrodes with a height of […] and an inter-electrode distance of 200 μm; Ayanda Biosystems SA, Lausanne, Switzerland). Intestinal segments were aligned horizontally to the recording electrode field, while the stomach was oriented with the antrum facing the recording electrode field. The chamber temperature was maintained at 37° C. and the sampling frequency was 1 kHz. […] All data were recorded and saved using MC_Rack (v 4.6.2, Multichannel Systems).
(§3) Data analysis included basic slow-wave feature extraction using a custom automated program. […] The time point of drug administration was automatically identified based on the signal disturbance. The period of signal disturbance (20 s before and 40 s after the peak of the disturbance) was excluded from the analysis. Data were filtered using a passband between 0.1 Hz and 1 Hz and a stopband between 0.01 Hz and 2 Hz. The basic slow-wave features extracted were similar to those extracted in the inventors' previous studies. However, instead of using several templates and scripts written in Microsoft Excel and Spike 2, a one-step automatic and blinded MATLAB programme was used for data analysis. There were four major changes to the data analysis process as compared to the inventors' previous studies. First, auto-identification of the drug disturbance time point was used, rather than manual identification. Second, standardised signal filters were built in MATLAB to match the entire data analysis pipeline. […] Frequency partitioning was performed by segmenting the power spectrum of 0-50 cpm into the following four segments: brady-rhythm (within the range 2-[DF−1] cpm), normal-rhythm ([DF±1] cpm), tachy-rhythm (within the range [DF+1]-40 cpm), and out-of-range frequencies (<2 cpm and >40 cpm). Third, waveforms were identified using the MATLAB ‘findpeaks’ function, with a minimum peak height of […] at baseline and […] after drug treatment, with a step time of 5.4 s for the intestine and 12 s for the stomach. The average peak-to-peak amplitude, slope, and period were derived for all detected waveforms. Fourth, propagation velocity was derived using phase-difference measurements, based on the auto-select seed electrode with the highest percentage of normal rhythms.
(§4) Dominant activation pattern identification included a phase-based analysis performed as previously described (Liu et al., 2021). Briefly, high-frequency spikes with amplitudes greater than […] were masked. Continuous frequencies were identified using continuous wavelet transformation, and the transformed data were used to plot spectrograms. […] High quality data were subjected to Hilbert transformation to identify the phase and frequency of the signals. Individual activation times were clustered using k-means clustering every 20 s and major activation patterns were grouped using a structural similarity index.

[2] = system: duodenum pacemaker potentials; assay: MEA recording of pacemaker potentials (slow waves), isolated duodenum; type: cell-based, Suncus murinus; settings: for amplitude of slow waves: duodenum
Procedure: as §1, §2, §3, §4

[3] = duodenal tissues, 0.1-100 μM, p>0.05, n=5-9

Structure (SMILES): Cl.NCCc1ccc(O)c(O)c1 [dopamine, 3-Hydroxytyramine hydrochloride]
- representative spectrogram, effect ([1]; 100 μM): reduced the DP of the DF
- wave fronts counted in representative spatio-temporal map (1 min) ([1]; 100 μM, 9 before treatment): ~10
- DFA fluctuation function (smaller scale 3-25) ([1]; 100 μM, baseline 2.36±0.08, p<0.05, n=7): 2.27±0.16
- number of groups of activation patterns ([1]; 100 μM, baseline 4.3±1.0, p<0.05, n=8): 5.3±1.0
- average frequency (AF) ([1]; 100 μM, baseline 9.8±1.2, p<0.05, n=8): 11.8±1.8 cpm
- percentage of tachy-rhythms ([1]; 100 μM, baseline 36.1±12.8, p<0.05, n=8): 60.2±15.4%
- percentage of normal rhythms ([1]; 100 μM, baseline 55.1±7.2, p<0.01, n=8): 23.6±13.1%
- dominant power (DP) of slow waves ([1]; 100 μM, baseline 888.0±691.5, p<0.05, n=8): 253.2±416.1 μV^2
- percentage of dominant patterns (based on post-treatment data, FIG. 3E), change vs baseline ([1]; 100 μM, p>0.05, n=4): No significant differences
- percentage of dominant baseline activation patterns, change vs baseline ([1]; 100 μM, p>0.05, n=4, FIG. 3D): No significant differences
- average SampEn (larger scale 6-50), effect ([1]; 100 uM, p>0.05, n=7): did not change
- average SampEn (smaller scale 1-5), effect ([1]; 100 uM, p>0.05, n=7): did not change
- DFA fluctuation function (larger scale 26-46), effect ([1]; 100 μM, p>0.05, n=7): did not change
- amplitude of slow waves, change vs baseline ([1]; 100 μM, p>0.05, n=8): No significant differences
- dominant frequency (DF), change vs baseline ([1]; 100 μM, p>0.05, n=8): No significant differences
- propagation velocities, effect ([1]; 100 μM, p>0.05, n=8): did not affect
- slope of waveforms, change vs baseline ([1]; 100 μM, p>0.05, n=8): No significant differences
- waveform period, change vs baseline ([1]; 100 μM, p>0.05, n=8): No significant differences
- wave propagation in video (FIG. 11B), effect ([1]; 100 M): wave propagation was inhibited, and amplitudes were reduced
- waveform period ([2]; duodenal tissues, 100 nM, baseline 2.52±0.21, p<0.05, n=7): 3.27 ± 0.47 s
- DFA fluctuation function (smaller scale 3-25) ([2]; duodenal tissues, 100 nM, baseline 2.65±0.08, p<0.01, n=6): 2.51±0.05
- percentage of tachy-rhythms ([2]; duodenal tissues, 100 nM, baseline 12.5±5.7, p<0.05, n=7): 2.1±0.7%
- percentage of dominant baseline activation patterns, second pattern ([2]; duodenal tissues, 100 nM, baseline 23.3±5.7, p<0.05, n=7): 8.4±11.2%
- average frequency (AF) ([2]; duodenal tissues, 100 nM, baseline 24.1±2.0, p<0.05, n=7): 20.9±0.7 cpm
- dominant frequency (DF) of slow waves ([2]; duodenal tissues, 100 nM, baseline 27.1±2.2, p<0.05, n=7): 24.9±1.2 cpm
- percentage of dominant baseline activation patterns, first pattern ([2]; duodenal tissues, 100 nM, baseline 32.3±11.8, p<0.01, n=7): 11.1±13.0%
- percentage of brady-rhythms ([2]; duodenal tissues, 100 nM, baseline 35.7±10.3, p<0.0001, n=7): 87.2±7.7%
- percentage of normal rhythms ([2]; duodenal tissues, 100 nM, baseline 46.1±11.2, p<0.001, n=7): 4.8±4.6%
- slope of waveforms ([2]; duodenal tissues, 100 nM, baseline 321.7±95.5, p<0.01, n=7): 166.9±57.7 μV s^−1
- DFA fluctuation function (larger scale 26-46) ([2]; duodenal tissues, 100 nM, baseline […], p<0.01, n=6): 1.98±0.11
- DFA fluctuation function (larger scale 26-46) ([2]; duodenal tissues, 1 μM, baseline 1.74±0.32, p<0.05, n=7): 1.63±0.38
- number of groups of activation patterns ([2]; duodenal tissues, 1 μM, baseline 6.2±1.0, p<0.05, n=6): 6.8±1.0
- percentage of brady-rhythms ([2]; duodenal tissues, 1 μM, baseline 25.8±12.3, p<0.05, n=6): 53.7±26.6%
- percentage of dominant baseline activation patterns, first pattern ([2]; duodenal tissues, 1 μM, baseline 33.7±13.1, p<0.05, n=6): 12.8±9.4%
- representative spectrogram, effect on DF ([2]; duodenal tissues, 10 μM): slightly shifted towards a lower frequency
- wave fronts counted in representative spatio-temporal map (1 min) ([2]; duodenal tissues, 10 μM, 30 before treatment): 27
- average SampEn (smaller scale 1-5) ([2]; duodenal tissues, 10 μM, baseline 0.58±0.05, p<0.05, n=7): 0.60±0.04
- number of groups of activation patterns ([2]; duodenal tissues, 10 μM, baseline 5.9±0.7, p<0.05, n=9): 6.4±0.5
- percentage of dominant patterns (based on post-treatment data, FIG. 3E), second pattern ([2]; duodenal tissues, 10 μM, baseline 10.2±9.1, p<0.05, n=5): 18.5±2.3%
- percentage of normal rhythms ([2]; duodenal tissues, 10 μM, baseline 52.4±14.7, p<0.05, n=9): 7.8±6.4%
- slope of waveforms ([2]; duodenal tissues, 10 μM, baseline 202.4±50.6, p<0.05, n=9): 153.9±47.7 μV s^−1
- DFA fluctuation function (larger scale 26-46) ([2]; duodenal tissues, 100 μM, baseline 1.46±0.29, p<0.05, n=9): 1.36±0.31
- waveform period ([2]; duodenal tissues, 100 μM, baseline 2.44±0.72, p<0.05, n=5): 3.26 ± 1.29 s
- percentage of dominant baseline activation patterns, third pattern ([2]; duodenal tissues, 100 μM, baseline 15.2±2.1, p<0.05, n=4): 5.9±3.6%
- percentage of dominant patterns (based on post-treatment data, FIG. 3E), third pattern ([2]; duodenal tissues, 100 μM, baseline 20.3±10.8, p<0.05, n=4): 7.5±5.8%
- average frequency (AF) ([2]; duodenal tissues, 100 μM, baseline 25.1±3.7, p<0.05, n=5): 22.2±5.4 cpm
- dominant frequency (DF) of slow waves ([2]; duodenal tissues, 100 μM, baseline 28.6±4.1, p<0.05, n=5): 26.3±5.2 cpm
- percentage of dominant baseline activation patterns, first pattern ([2]; duodenal tissues, 100 μM, baseline 29.3±5.5, p<0.01, n=4): 7.0±7.0%
- percentage of brady-rhythms ([2]; duodenal tissues, 100 μM, baseline 43.3±11.6, p<0.05, n=5): 68.6±29.0%
- slope of waveforms ([2]; duodenal tissues, 100 μM, baseline 322.2±108.6, p<0.01, n=5): 182.5±61.7 μV s^−1
- percentage of dominant baseline activation patterns, second pattern ([2]; duodenal tissues, 100 μM, baseline […], p<0.05, n=4): 7.4±4.1%
- dominant power (DP), change vs baseline [2, 3]: No significant differences
- propagation velocities, effect [2, 3]: did not affect
- average SampEn (larger scale 6-50), effect ([2]; duodenal tissues, 0.1-100 μM, p>0.05, n=6-9): did not change
- DFA fluctuation function (smaller scale 3-25) ([2]; duodenal tissues, 100 M, baseline 2.26±0.16, p<0.05, n=9): 2.18±0.16
- percentage of tachy-rhythms ([2]; duodenal tissues, 100 M, baseline 11.0±5.2, p<0.05, n=5): 5.4±4.9%
- amplitude of slow waves ([2]; 100 nM, baseline 193.0±54.9, p<0.01, n=7): 114.1±37.7 μV
- amplitude of slow waves ([2]; 10 μM, baseline 117.6±24.2, p<0.05, n=9): 97.4±13.7 μV
- amplitude of slow waves ([2]; 100 μM, baseline 199.3±60.5, p<0.01, n=5): 121.1±27.3 μV
